Laboratory results from patent publication US11338021B2, “Combination therapies” (ENZYMATICA AB, priority 2015, dated 2022).
“Also recorded” adds a separate entry of the source.

Experiments:
Format in all cases: cell-based
[1] = tested on: biofilms using a combination of Streptococcus pneumonia and Streptococcus mitis; assay: Dispersal of pre-grown model (super) biofilm in microtiter plate, crystal violet staining, absorbance at 492 nm; conditions: for biofilm disruption by antibiotic and cod trypsin combination compared with antibiotic alone: FIG. 1, Student's t test; for effect of antibiotic alone on biofilm formation: biofilms grown for 4 hours; for disruption of super biofilm by cod trypsins alone: FIGS. 4-6, compared with placebo, treated for 2 minutes
Protocol: Effects of combination of cod trypsins with selected antibiotics on biofilm dispersal. […] Biofilms using a combination of Streptococcus pneumonia and Streptococcus mitis were grown in a microtiter plate and used as a model for biofilm. The biofilm was treated with an antibiotic or a combination of the antibiotics and cod trypsins. The biofilms were stained with crystal violet followed by dissolution with acetic acid. Biofilm formation was measured as absorbance at 492 nm, and normalized to untreated biofilm. […] P values above bars indicate significance of difference between the two treatments as evaluated by Student's t test.
Effects of combination of cod trypsins with selected antibiotics on biofilm dispersal. […] Biofilms using a combination of Streptococcus pneumonia and Streptococcus mitis were grown in a microtiter plate and used as a model biofilm. The biofilm was treated with cod trypsins, an antibiotic, or a combination of the two. The biofilms were stained with crystal violet followed by dissolution with acetic acid. Biofilm formation was measured as absorbance at 492 nm, and normalized to untreated biofilm. […] P values above bars indicate significance of effects as evaluated by ANOVA analysis.
Each column represents one type of treatment or treatment combination, with the rows representing decreasing concentrations from top to bottom. After treatment biofilms are stained with crystal violet, with a darker colour representing more remaining biofilm. […] The lowest row represents blanks, where the first six holes represent untreated biofilm and the next six represent no biofilm.
Effects of cod trypsins on the super biofilm presented visually after biofilm staining with crystal violet. […] The super biofilm with a combination of Streptococcus pneumonia and Streptococcus mitis were grown in a microtiter plate. The biofilm was treated with cod trypsins or placebo for 2 minutes and the wells were stained to measure the presence (black wells) of biofilm or its absence (clear wells) after treatment.
After treatment the biofilms were stained with crystal violet, with a darker colour representing more remaining biofilm.
Effects of cod trypsins on the super biofilm as measured by spectrophotometry after crystal violet staining and dissolution in acetic acid. […] Biofilms using a combination of Streptococcus pneumonia and Streptococcus mitis were grown in a microtiter plate. The biofilm was treated with cod trypsins or placebo and the wells were stained with crystal violet followed by dissolution with acetic acid. Biofilm formation was measured as absorbance at 492 nm, and normalized to untreated biofilm. […] Data is presented as a bar-plot with the error bars indicating the standard error of the mean (SEM). Data for dilutions of placebo and cod trypsins treated bacterial biofilms are placed next to each other. The Log reduction of biofilm formation of Penzyme compared to that of placebo in the same dilution is above the bars, as is the level of significance indicated by asterisks (*), where * represents a P of <0.05, ** a P<0.01 and *** a P<0.001. Students T-test was used to calculate the significance.
Log reduction of super biofilm by cod trypsins at different concentrations. […] Biofilms using a combination of Streptococcus pneumonia and Streptococcus mitis were grown in a microtiter plate. The biofilm was treated with cod trypsins or placebo and the wells were stained with crystal violet followed by dissolution with acetic acid. Biofilm formation was measured as absorbance at 492 nm, and the reduction compared to placebo treated biofilm on a logarithmic scale.
Biofilms using a combination of Streptococcus pneumonia and Streptococcus mitis were grown in a microtiter plate. The biofilm was treated with an antibiotic or a combination of the antibiotics and cod trypsins. The biofilms were stained with crystal violet followed by dissolution with acetic acid.

[2] = tested on: biofilm forming bacteria Streptococcus pneumonia and Streptococcus mitis; assay: Pre-treatment of planktonic bacteria before biofilm formation (4 hours), crystal violet staining, absorbance at 492 nm; conditions: FIGS. 7-8, compared with placebo, biofilms grown 4 hours, normalized to untreated biofilm
Protocol: Effects of cod trypsins pre-treatment on biofilm formation. […] Biofilms using a combination of Streptococcus pneumonia and Streptococcus mitis were grown in a microtiter plate after being briefly treated with cod trypsins or placebo. After allowing the biofilms to grow for 4 hours the wells were stained with crystal violet followed by dissolution with acetic acid. Biofilm formation was measured as absorbance at 492 nm, and normalized to untreated biofilm. […] Data is presented as a boxplot where the top of the rectangle indicates the third quartile, a horizontal line near the middle of the rectangle indicates the median, and the bottom of the rectangle indicates the first quartile. A vertical line extends from the top of the rectangle to indicate the maximum value, and another vertical line extends from the bottom of the rectangle to indicate the minimum value.
Effects of cod trypsin pre-treatment on biofilm formation. […] Biofilms using a combination of Streptococcus pneumonia and Streptococcus mitis were grown in a microtiter plate after being treated with cod trypsins or placebo. After allowing the biofilms to grow for 4 hours the wells were stained with crystal violet followed by dissolution with acetic acid. Biofilm formation was measured as absorbance at 492 nm, and normalized to untreated biofilm. […] Statistical significance of the difference, as evaluated by Student's t test, is indicated by symbols above the boxes where n.s. is p >0.05, * is p<0.05, ** p<0.01, and *** p<0.001.
After allowing the biofilms to grow for 4 hours the wells were stained with crystal violet followed by dissolution with acetic acid. Biofilm formation was measured as absorbance at 492 nm, and normalized to untreated biofilm. […] Cod trypsins prevent biofilm formation in a concentration dependent manner. […] Biofilm formation was measured as absorbance at 492 nm, and normalized to untreated biofilm. […] Statistical significance of the difference, as evaluated by Student's t test, is indicated by symbols above the boxes where n.s. is p >0.05, * is p<0.05, ** p<0.01, and *** p<0.001.

bacteria = assay: Lethality of cod trypsin to bacteria (statement, no method given)
[3] = absorbance at 492 nm normalized to untreated biofilm
[4] = FIG. 3, 96 well plate image, crystal violet

CO/N=C(\C(=O)N[C@@H]1C(=O)N2C(C(=O)O)=C(COC(C)=O)CS[C@H]12)c1csc(N)n1 [cefotaxime]
biofilm disruption by antibiotic and cod trypsin combination compared with antibiotic alone [1, 3]: more effective in disrupting bacterial biofilm than antibiotics alone | biofilm disruption by combination of cod trypsin and antibiotic compared with either alone ([1]; FIG. 2, absorbance at 492 nm normalized to untreated biofilm, ANOVA): more effective in disrupting bacterial biofilm than either cod trypsins or antibiotics alone

CC[C@H]1OC(=O)[C@H](C)[C@@H](O[C@H]2C[C@@](C)(OC)[C@@H](O)[C@H](C)O2)[C@H](C)[C@@H](O[C@@H]2O[C@H](C)C[C@H](N(C)C)[C@H]2O)[C@](C)(O)C[C@@H](C)C(=O)[C@H](C)[C@@H](O)[C@]1(C)O [erythromycin]
biofilm disruption by antibiotic and cod trypsin combination compared with antibiotic alone [1, 3]: more effective in disrupting bacterial biofilm than antibiotics alone

Cc1onc(-c2ccccc2)c1C(=O)N[C@@H]1C(=O)N2[C@@H]1SC(C)(C)[C@@H]2C(=O)O [oxacillin]
biofilm disruption by antibiotic and cod trypsin combination compared with antibiotic alone [1, 3]: more effective in disrupting bacterial biofilm than antibiotics alone

CN[C@H](CC(C)C)C(=O)N[C@H]1C(=O)N[C@@H](CC(N)=O)C(=O)N[C@H]2C(=O)N[C@H]3C(=O)N[C@H](C(=O)N[C@H](C(=O)O)c4cc(O)cc(O)c4-c4cc3ccc4O)[C@H](O)c3ccc(c(Cl)c3)Oc3cc2cc(c3O[C@@H]2O[C@H](CO)[C@@H](O)[C@H](O)[C@H]2O[C@H]2C[C@](C)(N)[C@H](O)[C@H](C)O2)Oc2ccc(cc2Cl)[C@H]1O [vancomycin]
biofilm disruption by antibiotic and cod trypsin combination compared with antibiotic alone [1, 3]: not to have significantly increased efficacy against the model biofilm when combined with trypsin | effect of antibiotic in combination with cod trypsin on efficacy of cod trypsin [1, 4]: can increase the efficacy of cod trypsin | effect of antibiotic alone on biofilm formation [1, 4]: the drug alone appears to increase biofilm formation | effect of antibiotic alone on biofilm formation ([1]; FIG. 3, 96 well plate image, crystal violet, listed as Vancomycin): may increase biofilm formation

B1: cod trypsin: trypsin from Atlantic cod (Gadus morhua), a polypeptide having serine protease activity (protein, listed as Gadus morhua)
chain: IVGGYECTKHSQAHQVSLNSGYHFCGGSLVSKDWVVSAAHCYKSVLRVRLGEHHIRVNEGTEQYISSSSVIRHPNYSSYNINNDIMLIKLTKPATLNQYVHAVALPTECAADATMCTVSGWGNTMSSVADGDKLQCLSLPILSHADCANSYPGMITQSMFCAGYLEGGKDSCQGDSGGPVVCNGVLQGVVSWGYGCAERDHPGVYAKVCVLSGWVRDTMANY
prevention of biofilm formation by pre-treatment of bacteria [2]: can prevent the formation of biofilms in a concentration dependent manner | prevention of biofilm formation by pre-treatment of bacteria ([2]; listed as cod trypsin composition): very effective in preventing bacterial biofilm formation | prevention of biofilm formation by pre-treatment of bacteria ([2]; listed as cod trypsins): very effective in preventing bacterial biofilm formation | time in which cod trypsins disrupt bacterial biofilm ([1]; FIG. 6, at concentrations 8 U/g or higher): less than 2 minutes | concentrations at which cod trypsins are very effective in disrupting bacterial biofilm ([1]; FIG. 6, log reduction compared to placebo treated biofilm): ≥ 8 U/g | disruption of super biofilm by cod trypsins alone [1]: effective at removing biofilms at the higher concentration | disruption of super biofilm by cod trypsins alone ([1]; listed as cod trypsins): very effective in disrupting the super biofilm; also recorded: very effective in disrupting bacterial biofilm; also recorded: disrupt the super biofilm in a concentration dependent manner; also recorded: quite capable of both removing bacteria from and partially prevent reattachment of bacteria to surfaces in a concentration dependent manner | lethality to the bacteria (bacteria): not lethal to the bacteria
